Data on seven molecules can be found in PMC8847575, “HSL1 and BAM1/2 impact epidermal cell development by sensing distinct signaling peptides” (Nature Communications, 2022).

Square brackets hold non-standard residues; d marks the D form. Peptide text beside a SMILES is read from it. Hyp = O=C(O)[C@@H]1C[C@@H](O)CN1

The target in one experiment is T1, BAM1 LRR ectodomain (Arabidopsis thaliana, UniProt O49545).
T1 construct: BAM1 (residues 20–637, AT5G65700); azurocidin or Drosophila BIP signal peptide (secretion signal) (N); made in house; host or cells: Trichoplusia ni Tnao38 insect cells (baculovirus)
T1 sequence (O49545 20-637): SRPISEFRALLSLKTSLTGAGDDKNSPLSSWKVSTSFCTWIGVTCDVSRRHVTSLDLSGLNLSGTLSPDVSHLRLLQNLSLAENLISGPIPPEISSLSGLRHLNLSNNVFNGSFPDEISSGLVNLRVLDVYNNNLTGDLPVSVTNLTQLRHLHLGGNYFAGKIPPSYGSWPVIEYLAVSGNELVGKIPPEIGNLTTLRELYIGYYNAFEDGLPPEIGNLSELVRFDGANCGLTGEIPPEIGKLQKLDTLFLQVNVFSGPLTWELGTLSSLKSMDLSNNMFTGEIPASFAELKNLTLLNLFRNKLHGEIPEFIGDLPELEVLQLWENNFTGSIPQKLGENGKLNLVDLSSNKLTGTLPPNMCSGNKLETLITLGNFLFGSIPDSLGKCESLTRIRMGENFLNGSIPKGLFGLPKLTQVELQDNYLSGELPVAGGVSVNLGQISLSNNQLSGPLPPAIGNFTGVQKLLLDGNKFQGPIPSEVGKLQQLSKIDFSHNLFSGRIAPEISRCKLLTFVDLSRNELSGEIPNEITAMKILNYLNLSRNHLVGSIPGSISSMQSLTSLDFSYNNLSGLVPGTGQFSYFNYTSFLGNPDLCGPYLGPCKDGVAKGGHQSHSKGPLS
The experiment can be described thus: ITC, peptide titrated into BAM1 ectodomain. Format: binding. The settings on record: ITC, 25 °C, mean ± SD of at least two independent experiments; for ΔH, peptide vs BAM1: peptide into BAM1 ectodomain, pH 5.0; for Kd (dissociation constant), peptide vs BAM1: peptide into BAM1 ectodomain (cell), 20 mM sodium citrate pH 5.0, 150 mM NaCl, N fitted to 1, n.d = no binding detected. An excerpt:
All genes used for protein expression in Trichoplusia ni Tnao38 cells[46] were codon optimized and cloned into a modified pFastBac vector (Geneva Biotech) providing an azurocidin[47] or Drosophila BIP signal peptide, a TEV (tobacco etch virus protease) cleavage site and a Strep-9xHis tandem affinity tag at their carboxy terminus. The genes used are coding for the Arabidopsis ectodomains of HSL1 (residues 17-618, AT1G28440), HAE (residues 20-620, AT4G28490) SERK1 (residues 24–213, AT1G71830), and BAM1 (residues 20–637, AT5G65700). To perform Grating-coupled interferometry (GCI) experiments, HSL1 was fused to a non-cleavable Avi-tag[49],[50]. Baculovirus generation was carried out in DH10 cells and virus amplification was done in Spodoptera frugiperda Sf9 cells. For protein expression, Trichoplusia ni Tnao38 cells were infected with HAE, HSL1, BAM1 and SERK1 virus with a multiplicity of infection (MOI) of 3. The cells were grown 1 day at 28 °C and two days at 22 °C at 110 rpm. After every expression round, secretion of our proteins was detected using an anti-His-HRP conjugated antibody from Roche (Ref:11965085001) in a 1:2000 dilution. […] Next, affinity tags were removed by incubating the purified proteins with recombinant His-tagged TEV protease, in a 1:50 ratio. The cleaved tag and the protease were separated from the ectodomains by a second Ni^2+ affinity step. Proteins were further purified by size-exclusion chromatography on a Superdex 200 Increase 10/300 GL column (GE Healthcare) equilibrated in 20 mM citric acid pH 5.0, 150 mM NaCl. Peak fractions containing the single proteins or complexes were concentrated using Amicon Ultra concentrators (Millipore, MWCO 10,000 for SERK1 and 30,000 for HAE, HSL1, and BAM1) and used for crystallization or biochemical experiments. Proteins were analyzed for purity and structural integrity by SDS-PAGE.
Experiments were performed at 25 °C using a MicroCal PEAQ-ITC (Malvern Instruments) with a 200 µL standard cell and a 40 μL titration syringe. HSL1, BAM1, and SERK1 proteins were gel-filtrated into the ITC buffer (20 mM sodium citrate pH 5.0, 150 mM NaCl). Molar protein concentrations for HSL1, BAM1, and SERK1 were calculated using their molar extinction coefficient and a molecular weight of 74,896 and 27,551 Da, respectively as previously determined. A typical experiment consisted of injecting 2 μL of a range between 75 and 600 μM solution of ligand into 10 to 30 μM HAE, HSL1, or BAM1 solution in the cell at 150 s intervals and 500 rpm stirring speed. The SERK1 vs HAE/HSL1-peptide experiments were performed by titrating 100 µM SERK1 in the cell, using the same injection pattern. ITC data were corrected for the heat of dilution by subtracting the mixing enthalpies for titrant solution injections into protein-free ITC buffer. Experiments were done in duplicates or triplicates, otherwise specified, and data were analyzed using the MicroCal PEAQ-ITC Analysis Software provided by the manufacturer. […] The N values were fitted to 1 in the analysis.
On the technique in general: In ITC the heat of successive injections is recorded.

Experiment [1] has as its target T2, BAM1 (BARELY ANY MERISTEM 1) ectodomain (Arabidopsis, UniProt O49545 20-637).
T2 chain: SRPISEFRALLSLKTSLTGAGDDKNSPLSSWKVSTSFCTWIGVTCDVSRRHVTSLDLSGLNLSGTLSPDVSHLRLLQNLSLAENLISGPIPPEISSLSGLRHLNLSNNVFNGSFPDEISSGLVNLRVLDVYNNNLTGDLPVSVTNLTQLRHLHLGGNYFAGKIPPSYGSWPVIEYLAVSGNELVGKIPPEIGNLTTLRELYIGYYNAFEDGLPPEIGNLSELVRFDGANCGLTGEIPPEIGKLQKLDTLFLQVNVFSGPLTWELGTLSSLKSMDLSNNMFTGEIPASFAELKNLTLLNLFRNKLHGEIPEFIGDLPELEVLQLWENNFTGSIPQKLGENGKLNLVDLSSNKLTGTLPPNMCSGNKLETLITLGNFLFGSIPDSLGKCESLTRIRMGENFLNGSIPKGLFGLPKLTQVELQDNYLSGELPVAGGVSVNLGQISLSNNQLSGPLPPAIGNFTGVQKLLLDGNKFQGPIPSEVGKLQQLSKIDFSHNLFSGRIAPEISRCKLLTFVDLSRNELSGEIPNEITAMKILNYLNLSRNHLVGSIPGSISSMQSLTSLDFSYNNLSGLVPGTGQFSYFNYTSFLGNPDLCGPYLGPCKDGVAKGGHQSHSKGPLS
The experiment can be described thus: ITC.

With `CC[C@H](C)[C@H](NC(=O)[C@@H]1CCCN1)C(=O)N[C@H](C(=O)N1CCC[C@H]1C(=O)N[C@@H](CO)C(=O)NCC(=O)N1C[C@H](O)C[C@H]1C(=O)N[C@@H](CC(N)=O)C(=O)N1CCC[C@H]1C(=O)N[C@@H](CC(C)C)C(=O)N[C@@H](Cc1c[nH]cn1)C(=O)N[C@@H](CC(N)=O)C(=O)O)C(C)C` [CLE9^R109PL110I] (H-PIVPSG[Hyp]NPLHN-OH), the “ΔH, peptide vs BAM1” value at BAM1 LRR ectodomain is given as -27 ± 11 kcal/mol. Turning to `CC(C)C[C@H](NC(=O)[C@@H]1CCCN1C(=O)[C@H](CC(N)=O)NC(=O)[C@@H]1C[C@@H](O)CN1C(=O)CNC(=O)[C@H](CO)NC(=O)[C@@H]1CCCN1C(=O)[C@@H]1CCCN1C(=O)[C@H](CC(C)C)NC(=O)[C@@H]1CCCN1)C(=O)N[C@@H](Cc1c[nH]cn1)C(=O)N[C@@H](CC(N)=O)C(=O)O` [CLE9^R109PV111P] (H-PLPPSG[Hyp]NPLHN-OH), at BAM1 LRR ectodomain, the “ΔH, peptide vs BAM1” value is -3.7 ± 0.4 kcal/mol.

Consider `CC[C@H](C)[C@H](NC(=O)[C@@H]1CCCN1)C(=O)N1CCC[C@H]1C(=O)N1CCC[C@H]1C(=O)N[C@@H](CO)C(=O)NCC(=O)N1C[C@H](O)C[C@H]1C(=O)N[C@@H](CC(N)=O)C(=O)N1CCC[C@H]1C(=O)N[C@@H](CC(C)C)C(=O)N[C@@H](Cc1c[nH]cn1)C(=O)N[C@@H](CC(N)=O)C(=O)O` [CLE9^R109PL110IV111P] (H-PIPPSG[Hyp]NPLHN-OH), for which, at BAM1 LRR ectodomain, the “Kd (dissociation constant), peptide vs BAM1” value is listed as “non-detectable binding”. Consider `CC(C)C[C@H](NC(=O)[C@@H]1CCCN1C(=O)[C@H](CC(N)=O)NC(=O)[C@@H]1C[C@@H](O)CN1C(=O)CNC(=O)[C@H](CO)NC(=O)[C@@H]1CCCN1C(=O)[C@@H]1CCCN1C(=O)[C@H](CC(C)C)NC(=O)[C@@H](N)CCCNC(=N)N)C(=O)N[C@@H](Cc1c[nH]cn1)C(=O)N[C@@H](CC(N)=O)C(=O)O` [CLE9^V111P] (H-RLPPSG[Hyp]NPLHN-OH), for which the “ΔH, peptide vs BAM1” value on BAM1 LRR ectodomain is reported as -19 ± 8.3 kcal/mol. As for `CC(C)C[C@H](NC(=O)[C@@H](N)CCCNC(=N)N)C(=O)N[C@H](C(=O)N1CCC[C@H]1C(=O)N[C@@H](CO)C(=O)N[C@@H](C)C(=O)N1C[C@H](O)C[C@H]1C(=O)N[C@@H](CO)C(=O)N[C@@H](CCCCN)C(=O)N[C@@H](CCCNC(=N)N)C(=O)N[C@@H](Cc1c[nH]cn1)C(=O)N[C@@H](CC(N)=O)C(=O)O)C(C)C` [IDA^P58RI59LP60V] (H-RLVPSA[Hyp]SKRHN-OH), the “Kd (dissociation constant), peptide vs BAM1” value on BAM1 LRR ectodomain was “restore binding to BAM1”. As to `CC(C)C[C@H](NC(=O)[C@@H]1CCCN1)C(=O)N[C@H](C(=O)N1CCC[C@H]1C(=O)N[C@@H](CO)C(=O)NCC(=O)N1C[C@H](O)C[C@H]1C(=O)N[C@@H](CC(N)=O)C(=O)N1CCC[C@H]1C(=O)N[C@@H](CC(C)C)C(=O)N[C@@H](Cc1c[nH]cn1)C(=O)N[C@@H](CC(N)=O)C(=O)O)C(C)C` [CLE9^R109P] (H-PLVPSG[Hyp]NPLHN-OH), the “ΔH, peptide vs BAM1” value at BAM1 LRR ectodomain is reported as -26 ± 8 kcal/mol.

B1: IDA^P58RI59LP60V peptide (peptide)
chain: RLVPSAPSKRHN
Usually Kd stands for a measure of binding affinity in units of concentration. In turn, B1 gave a dissociation constant Kd in experiment [1] of 980 nM.
